Laboratory results taken from patent US20070015813A1, “Treatment of protein folding disorders” (QUEEN'S UNIVERSITY AT KINGSTON, priority 2005, published 2007).

Key:
Aβ1-42 = target: T1, Aβ1-42 (Homo sapiens, UniProt P05067); assay: Kinetic Thioflavin T (ThT) aggregation assay of Aβ1-42; assay type: biochemical; settings: 20 μM Aβ1-42, kinetic ThT assay
T1 construct: Aβ^1-42 (AnaSpec, lot 45685); purchased AnaSpec
Experimental: Aβ^1-42 (1.0 mg) was either pretreated with HFIP in the same manner as Aβ^1-40 or this step was omitted. After removing HFIP, when appropriate, Aβ^1-42 was dissolved in 1% NH3 (aq.) (200 μL) and sonicated for 1 min. The solution was diluted with Tris-HCl (5.7 mL, 20 mM, pH 7.4), the pH adjusted to 7.4 with concentrated HCl (aq.) and the solution filtered using a syringe filter (0.2 μm). Prior to use in the ThT aggregation assay, the solution was diluted with an equal volume of 8 μM Thioflavin T (ThT) in Tris-HCl (20 mM, pH 7.4, 300 mM NaCl).
(§1) Aliquots (200 μL) of Aβ^1-40, Aβ^1-42, tau441 or α-synuclein with ThT or ThS were added to wells of a black polystyrene 96-well plate, followed by 2 μL of a compound in DMSO (various concentrations), or DMSO alone (controls). For α-synuclein, sodium dodecyl sulfate solution (2.0 μL, 30 mM) was also added to each well to induce aggregation. Incubations were performed in triplicate and were taken to contain 20 μM Aβ^1-40 or Aβ^1-42, 6 μM tau441 or 4 μM α-synuclein. Plates were covered with clear polystyrene lids and incubated at 37° C. in a GENios microplate reader obtained from Tecan Group Limited, Mannedorf, Zurich. For Aβ^1-40, tau441 and α-synuclein, fluorescence readings (λex=450 nm, λem=480 nm) were taken every 15 min., after first shaking at high intensity for 15 sec. and allowing to settle for 10 sec. before each reading. For Aβ^1-42, readings were taken every 5 min.
(§2) The absorbance of each compound was measured under the conditions used during testing, though on ten times the scale (2 mL), to ensure no significant quenching interfered with the assay. This step was also used to identify whether compounds were completely soluble under testing conditions.
FIG. 7 depicts inhibition of Aβ^1-42 aggregation by various synthesized bi-aromatic compounds and positive controls morin (Ono K, Yoshiike Y, Takashima A, Hasegawa K, Naiki H, Yamada M. 2003. J Neurochem 87:172-81) and RS-0406 (Walsh D M, Townsend M, Podlisny M B, Shankar G M, Fadeeva J V, Agnaf O E, Hartley D M, Selkoe D J. 2005. J Neurosci 25:2455-62) in the kinetic ThT assay. Same conditions as for Aβ^1-40, FIG. 1. Compound concentrations were 100 μM in (A), 20 μM in (B), except for RS-0406, which was tested at 100 μM, and 20 μM in (C).

Aβ1-40 = target: T2, Aβ1-40 (Homo sapiens, UniProt P05067); assay: Kinetic Thioflavin T (ThT) aggregation assay of Aβ1-40; assay type: biochemical; settings: for inhibition of Aβ1-40 aggregation, as measured by Thioflavin T (ThT) fluorescence: 20 μM Aβ1-40, 4 μM ThT, pH 7.4, 37° C., kinetic ThT assay
T2 construct: Aβ^1-40 (AnaSpec, San Jose, Calif., lots 14212, 34862 and 34889); purchased AnaSpec, San Jose, Calif
Experimental: Aβ^1-40 (1.0 mg) was pre-treated in a 1.5 mL microfuge tube with 1,1,1,3,3,3-hexafluoroisopropanol (HFIP, 1 mL) and sonicated for 20 min. to disassemble any pre-formed Aβ aggregates. The HFIP was removed with a stream of argon and the Aβ dissolved in Tris base (5.8 mL, 20 mM, pH 10.5). The pH was adjusted to 7.4 with concentrated HCl and the solution filtered using a syringe filter (0.2 μm). This solution was used for circular dichroism studies or diluted with an equal volume of 8 μM Thioflavin T (ThT) in Tris-HCl (20 mM, pH 7.4, 300 mM NaCl) for the ThT aggregation assay.
as §1, §2
FIG. 1 depicts the inhibition of Aβ^1-40 aggregation, as measured by Thioflavin T (ThT) fluorescence, by directly-linked 3,3′-bis-indolyl compounds 0c-i (A), other bis-indoles (B), aza-indole-containing compounds (C), indole-phenols (D), indole-5-carboxylic acid-containing bi-aromatics (E), and naphthol-containing bi-aromatics (F). Aggregation conditions: 20 μM Aβ^1-40 incubated in covered black 96-well polystyrene microplates with 4 μM ThT, pH 7.4, Tris-HCl (20 mM), 150 mM NaCl, 1% DMSO. Compound concentrations are 200 μM (A,B, except where otherwise noted), 100 μM (E), 20 μM (F), or as indicated (C,D). Plates heated at 37° C. in Tecan Genios microplate reader. All incubations performed in triplicate. Prior to experiment, Aβ^1-40 pretreated with 1,1,1,3,3,3-hexafluoroisopropanol (HFIP). Fluorescence readings: fluorescence measured every 15 min. (λex=450 nm, λem=480 nm) after shaking for 15 sec. and pausing 10 sec. before taking measurement. Values are the mean of three replicates. Error bars, omitted for clarity in (B), represent standard deviation of the mean.

[1] = Colour on exposure to light and air (stability to oxidation); assay type: physicochemical; settings: solid compounds, days or weeks
Experimental: The highly branched bridging groups of 1h,i,j provide additional molecular diversity to help identify favourable characteristics for compound activity against Aβ.

tau441 = target: T3, tau441 (Homo sapiens, UniProt P10636); assay: Kinetic Thioflavin S (ThS) assay of tau441 aggregation; assay type: biochemical
T3 construct: (expression construct); host or cells: E. coli BL21 D3
Experimental: The tau441 expression construct [L Buee et al. (2000). Brain Research Reviews 33:95-130] was purchased (Bioclon Inc., San Diego, Calif.) already transformed in BL21 D3 bacterial cells (Novagen/EMD Biosciences) for protein expression. Cells were grown and induced with IPTG according to Novagen's protocol. To lyse cells, Cellytic B reagent (Sigma) was used with lysozyme protease inhibitors (Sigma) and benzonase (Novagen/EMD Biosciences), according to manufacturer's methods. Lysate was cleared by centrifugation for 20 min at 10,000 RPM (SS34 rotor, Sorvall RC2b centrifuge) at 4° C. Protein was purified from the soluble fraction. Once purified, tau441 was stored at −78° C. as frozen aliquots (8.3 mg/mL, 60 μL) in Tris-HCl (50 mM, pH 7.4) until used.
Frozen aliquots of tau441 (8.3 mg/mL, 60 μL) in Tris-HCl (50 mM, pH 7.4) were allowed to thaw at room temperature (RT) before being diluted with Tris-HCl (2.64 mL, 50 mM, pH 7.4) containing dithiothreitol (DTT, 1 mM) to prevent disulfide bonds and NaN3 (50 μM) to prevent bacterial growth. After allowing to stand at RT for 1 h, Thioflavin S (ThS) was added (2.5 μL, 10.8 mM), followed by the aggregation inducer heparin (20 μL, 1.08 g/mL).
as §1
Aggregation conditions: tau441 at a concentration of either 10 μM (A) or 4 μM (B,C,D,E) was incubated in covered black 96-well polystyrene microplates alone or with 100 (A) or 50 μM compound (B,C,D,E), 5 μM ThS, pH 7.4, Tris-HCl (50 mM) containing NaN3 (50 μM), and either 1% MeOH (A) or 1% DMSO (B,C,D,E). Plates were heated at 37° C. in a Tecan GENios microplate reader. All incubations performed in triplicate, except for compound 0c in (A), which had n=1. Fluorescence readings: fluorescence measured every 15 min. (λex=450 nm, λem=480 nm) after shaking for 15 sec. and pausing 10 sec. before taking measurement. Values are the mean of three replicates. Error bars, sometimes not visible due to small size, represent standard deviation of the mean.
Aggregation conditions: tau441 at a concentration of 4 μM was incubated in covered black 96-well polystyrene microplates alone or with 50 μM (A,B,C) or 1 mM compound (D), 5 μM ThS, pH 7.4, Tris-HCl (50 mM) containing NaN3 (50 μM), and 1% DMSO. Plates were heated at 37° C. in a Tecan GENios microplate reader. All incubations performed in triplicate. Fluorescence readings: fluorescence measured every 15 min. (λex=450 nm, λem=480 nm) after shaking for 15 sec. and pausing 10 sec. before taking measurement. Values are the mean of three replicates. Error bars, sometimes not visible due to small size, represent standard deviation of the mean.

T2 sequence (P05067 672-711 limits assumed): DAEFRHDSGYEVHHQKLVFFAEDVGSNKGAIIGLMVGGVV
T1 sequence (P05067 672-713 limits assumed): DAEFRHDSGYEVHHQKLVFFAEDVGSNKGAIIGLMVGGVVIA
T3 sequence (P10636 1-441 isoform P10636-8): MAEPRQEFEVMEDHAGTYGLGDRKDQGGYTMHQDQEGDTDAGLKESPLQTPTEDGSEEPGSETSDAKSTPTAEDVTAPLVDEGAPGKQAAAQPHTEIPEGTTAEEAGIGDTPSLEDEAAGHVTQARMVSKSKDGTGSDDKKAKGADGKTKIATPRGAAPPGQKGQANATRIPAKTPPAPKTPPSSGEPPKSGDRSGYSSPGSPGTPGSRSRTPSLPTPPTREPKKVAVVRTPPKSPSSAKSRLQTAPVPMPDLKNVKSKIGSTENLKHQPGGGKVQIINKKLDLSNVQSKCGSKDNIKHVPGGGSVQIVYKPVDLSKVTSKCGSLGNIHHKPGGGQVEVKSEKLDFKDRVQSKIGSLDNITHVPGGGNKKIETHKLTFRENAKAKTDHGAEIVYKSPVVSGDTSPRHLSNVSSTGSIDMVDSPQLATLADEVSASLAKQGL

Compound | inhibition of Aβ1-42 aggregation, as measured by ThT fluorescence (Aβ1-42) | melting point | also measured
B.O=C(O)c1ccc2[nH]cc(-c3c[nH]c4ncccc34)c2c1 [0o, 3-(7-azaindol-3-yl)-indole-5-carboxylic acid.BH3] | inhibit aggregation | – | inhibition of Aβ1-40 aggregation, as measured by Thioflavin T (ThT) fluorescence (Aβ1-40): inhibit aggregation
Oc1ccc2cc(-c3cc4ccccc4o3)ccc2c1 [compound 64, 6-Benzofuran-2-yl-naphthalen-2-ol] | inhibiting aggregation | – | –
COc1ccc2[nH]cc(-c3c[nH]c4ccc(OC)cc34)c2c1 [0b, 5-methoxy-3-(5-methoxy-indol-3-yl)-indole] | – | 193 to 196 °C | –
O=C(O)c1ccc2[nH]c(Cc3ccc(O)cc3)c(Cc3ccc(O)cc3)c2c1 [compound 102, 2,3-bis(4-hydroxybenzyl)-indole-5-carboxylic Acid] | – | – | activity against (inhibition of) Aβ1-40 aggregation at 200 μM compound (Aβ1-40; 200 μM compound, 20 μM Aβ1-40, kinetic ThT assay (FIG. 1A, 1D)): active
Oc1ccc2[nH]cc(C3CNc4ncccc43)c2c1 (stereo not shown) [0n, 3-(2,3-dihydro-7-azaindol-3-yl)-indol-5-ol] | inhibit aggregation | – | inhibition of Aβ1-40 aggregation, as measured by Thioflavin T (ThT) fluorescence (Aβ1-40): inhibit aggregation
O=C(O)c1sc2ccccc2c1-c1cc2ccccc2o1 [compound 83, 3-(Benzofuran-2-yl)-benzothiophene-2-carboxylic Acid] | – | – | effect on tau fibrillization (ThS fluorescence) (tau441; tau441 4 or 10 μM, 50 to 100 μM compound, 5 μM ThS, heparin inducer, pH 7.4, 37° C.): Other than 83 in FIG. 10E, all the bi-aromatics tested significantly modulated
O=C(O)c1ccc2c(-c3c[nH]c4ccccc34)c[nH]c2c1 [0k, 3-(Indol-3-yl)-indole-6-carboxylic Acid] | inhibiting aggregation | – | –
O=C(O)c1cccnc1 [nicotinic acid] | – | – | effect on tau fibrillization (ThS fluorescence) at 1 mM (tau441; tau441 4 μM, 1 mM compound (FIG. 11D)): no effect

Second part, led by results:

inhibition of Aβ1-42 aggregation, as measured by ThT fluorescence (Aβ1-42) | melting point | Compound | also measured
– | 82 to 84 °C | c1ccc2c(c1)ccn2Cc1c[nH]c2ccccc12 [1b, 3-((indol-1-yl)methyl)-indole] | –
– | 132 °C (dec.) | CC1(C)CC(C)(c2c[nH]c3ccc(O)cc23)c2[nH]c3ccc(O)cc3c21 (stereo not shown) [1i, 1,2,3,4-Tetrahydro-3-(5-hydroxyindol-3-yl)-1,1,3-trimethylcyclopenta[b]indol-7-ol] | colour when exposed to light and air [1]: remained a light colour
– | 140 °C (dec.) | CC1(C)CC2(CC(C)(C)c3c2[nH]c2ccc(O)cc32)c2[nH]c3ccc(O)cc3c21 [1j, 3,3,3′,3′-Bis(1,2,3,4-tetrahydro-1,1-dimethylcyclopenta[b]indol-7-ol)] | colour when exposed to light and air [1]: remained a light colour
– | 205 °C (dec.) | O=C(O)c1ccc2[nH]cc(CCc3c[nH]c4ccc(Br)cc34)c2c1 [2b, 3-(2-(5-bromo-indol-3-yl)ethyl)-indole-5-carboxylic Acid] | –
– | 48 to 50 °C | COc1ccc2c(ccn2Cc2c[nH]c3ccc(OC)cc23)c1 [1d, 5-methoxy-3-((5-methoxy-indol-1-yl)methyl)-indole] | –
inhibit aggregation | – | B.COc1ccc2[nH]cc(-c3c[nH]c4ncccc34)c2c1 [10n, 3-(5-methoxyindol-3-yl)-7-azaindole.BH3] | inhibition of Aβ1-40 aggregation, as measured by Thioflavin T (ThT) fluorescence (Aβ1-40): inhibit aggregation
inhibition | – | Oc1cccc(Nc2ccc(Nc3cccc(O)c3)nn2)c1 [RS-0406] | –
– | 133 to 136 °C | CC(C)(c1c[nH]c2ccc(O)cc12)c1c[nH]c2ccc(O)cc12 [1h, 2,2-Bis-(5-hydroxyindol-3-yl)propane] | colour when exposed to light and air [1]: remained a light colour
